Values quoted from earlier work, collected in publication PMC6832141, “Synthesis and Cyclooxygenase Inhibition of Sulfonamide-Substituted (Dihydro)Pyrrolo[3,2,1-hi]indoles and Their Potential Prodrugs” (Molecules, 2019).
Where two headings read alike, the source gives them in different places.

How the values were obtained:
[1] = set-up: method as in doi:10.1002/slct.201601618, PMID 12064545; conditions: reference substances for the HPLC logD method; cited from earlier work
[2] = rat plasma, parecoxib leading to valdecoxib, cited from earlier work
hCOX-2 = conditions: read-out: IC50 hCOX-2; cited from earlier work

## C[C@]12CCC(=O)C=C1CC[C@@H]1[C@@H]2[C@@H](O)C[C@@]2(C)[C@H]1CC[C@]2(O)C(=O)CO [Hydrocortisone]
[1]
  logD7.4 of HPLC references: 1.65

## CCC(=O)NS(=O)(=O)c1ccc(-c2c(-c3ccccc3)noc2C)cc1 [parecoxib]
[2]; ref 19
  elimination half-life T1/2: 8.1 min
[2]; ref 23
  elimination half-life T1/2: 41.4 min
hCOX-2
  IC50: 20 µM
